Values joined by “and” are separate entries in the source; they are usually repeats but may differ in a detail not shown here. Equal entries are not always repeated. Toxic doses and inconclusive results are not listed.
Test system: L1210 leukemia ip in BDF1 mice, survival T/C
Assay: NCI In Vivo Anticancer Drug Screen. Data for tumor model L1210 Leukemia (intraperitoneal) in B6D2F1 (BDF1) mice
Details: endpoint: mean survival time, higher = longer survival
Procedure, shortened: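 Tumor was transplanted into mice, which were then dosed with test compound or vehicle alone. Survival was recorded for each group, and the treated figure was expressed relative to the control figure.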

[1] = dose: 200.0 mg/kg/injection, schedule: Q04DX003 (ip), vehicle: Klucel (hydroxypropylcellulose) (HPC)
[2] = dose: 100.0 mg/kg/injection, schedule: Q01DX009 (ip), vehicle: Klucel (hydroxypropylcellulose) (HPC)
[3] = dose: 200.0 mg/kg/injection, schedule: Q01DX009 (ip), vehicle: Klucel (hydroxypropylcellulose) (HPC)
[4] = dose: 400.0 mg/kg/injection, schedule: Q01DX009 (ip), vehicle: Klucel (hydroxypropylcellulose) (HPC)
[5] = dose: 100.0 mg/kg/injection, schedule: Q04DX003 (ip), vehicle: Klucel (hydroxypropylcellulose) (HPC)
[6] = dose: 400.0 mg/kg/injection, schedule: Q04DX003 (ip), vehicle: Klucel (hydroxypropylcellulose) (HPC)

`O=C(Nc1ccc(C2=NCCCN2)cc1)c1ccc(C(=O)Nc2ccc(C3=NCCCN3)cc2)nc1` was tested, and the T/C (dose: 1.5 mg/kg/injection, schedule: Q01DX Z (ip), vehicle: water) was 122 % of control, the T/C (dose: 3.0 mg/kg/injection, schedule: Q01DX Z (ip), vehicle: water) was 114 % of control and the T/C (dose: 3.0 mg/kg/injection, schedule: Q01DX Z (oral), vehicle: water) was 97 % of control. For the same compound, the T/C (dose: 6.0 mg/kg/injection, schedule: Q01DX Z (ip), vehicle: water) was 172 % of control, the T/C (dose: 6.25 mg/kg/injection, schedule: Q01DX Z (oral), vehicle: water) was 95 % of control and the T/C (dose: 7.5 mg/kg/injection, schedule: Q01DX001 (ip), vehicle: water) was 118 % of control. For the same compound, the T/C (dose: 12.5 mg/kg/injection, schedule: Q01DX Z (oral), vehicle: water) was 89 % of control and the T/C (dose: 25.0 mg/kg/injection, schedule: Q01DX Z (oral), vehicle: water) was 91 % of control.
With `Cc1ncnc2c1ncn2C1OC(CO)C(O)C1O` (configuration not stated) the T/C (dose: 0.24 mg/kg/injection, schedule: Q01DX015 (ip), vehicle: saline) was 103 % of control, the T/C (dose: 0.36 mg/kg/injection, schedule: Q01DX015 (ip), vehicle: saline) was 106 % of control and the T/C (dose: 0.54 mg/kg/injection, schedule: Q01DX015 (ip), vehicle: saline) was 116 % of control. The T/C (dose: 1.21 mg/kg/injection, schedule: Q01DX015 (ip), vehicle: saline) was 109 % of control and 110 % of control.
For `CCCC/C(CC)=N\N=C(/CC)CCCC`, the T/C (dose: 50.0 mg/kg/injection, schedule: Q04DX002 (ip), vehicle: saline) was 91 % of control, the T/C (dose: 100.0 mg/kg/injection, schedule: Q04DX002 (ip), vehicle: saline) was 102 % of control and the T/C (dose: 200.0 mg/kg/injection, schedule: Q04DX002 (ip), vehicle: saline) was 88 % of control. For the same compound, the T/C (dose: 400.0 mg/kg/injection, schedule: Q04DX002 (ip), vehicle: saline) was 96 % of control.
With `O=C(C=P(c1ccccc1)(c1ccccc1)c1ccccc1)CCl` the T/C (dose: 6.25 mg/kg/injection, schedule: Q01DX001 (ip), vehicle: Klucel (hydroxypropylcellulose) (HPC)) was 102 % of control, the T/C (dose: 6.25 mg/kg/injection, schedule: Q01DX009 (ip), vehicle: Klucel (hydroxypropylcellulose) (HPC)) was 103 % of control and the T/C (dose: 6.25 mg/kg/injection, schedule: Q04DX003 (ip), vehicle: Klucel (hydroxypropylcellulose) (HPC)) was 97 % of control. For the same compound, the T/C (dose: 12.5 mg/kg/injection, schedule: Q01DX001 (ip), vehicle: Klucel (hydroxypropylcellulose) (HPC)) was 98 % of control, the T/C (dose: 12.5 mg/kg/injection, schedule: Q01DX009 (ip), vehicle: Klucel (hydroxypropylcellulose) (HPC)) was 101 % of control and the T/C (dose: 12.5 mg/kg/injection, schedule: Q04DX003 (ip), vehicle: Klucel (hydroxypropylcellulose) (HPC)) was 97 % of control. The T/C (dose: 25.0 mg/kg/injection, schedule: Q01DX001 (ip), vehicle: Klucel (hydroxypropylcellulose) (HPC)) was 98 % of control, the T/C (dose: 25.0 mg/kg/injection, schedule: Q01DX009 (ip), vehicle: Klucel (hydroxypropylcellulose) (HPC)) was 104 % of control and the T/C (dose: 25.0 mg/kg/injection, schedule: Q04DX003 (ip), vehicle: Klucel (hydroxypropylcellulose) (HPC)) was 100 % of control.
`CN1CCN(C(=O)Nc2ccc(N=Nc3ccccc3)cc2)CC1` was tested, and the T/C [1] was 87 % of control.
With `O=[N+]([O-])c1ccc2cnn(C[N+]34CN5CN(CN(C5)C3)C4)c2c1` the T/C (dose: 100.0 mg/kg/injection, schedule: Q01DX001 (ip), vehicle: other) was 103 % of control, the T/C (dose: 200.0 mg/kg/injection, schedule: Q01DX001 (ip), vehicle: other) was 100 % of control and the T/C (dose: 400.0 mg/kg/injection, schedule: Q01DX001 (ip), vehicle: other) was 111 % of control.
`CC1(C)N=C(N)N=C(N)N1c1ccc(CCCCc2ccc(Cl)c(S(=O)(=O)F)c2)c(Cl)c1` was tested, and the T/C (dose: 12.5 mg/kg/injection, schedule: Q01DX009 (ip), vehicle: saline sonified) was 93 % of control, the T/C (dose: 12.5 mg/kg/injection, schedule: Q04DX003 (ip), vehicle: saline sonified) was 96 % of control and the T/C (dose: 25.0 mg/kg/injection, schedule: Q01DX009 (ip), vehicle: saline sonified) was 94 % of control. The T/C (dose: 25.0 mg/kg/injection, schedule: Q04DX003 (ip), vehicle: saline sonified) was 93 % of control, the T/C (dose: 50.0 mg/kg/injection, schedule: Q01DX009 (ip), vehicle: saline sonified) was 98 % of control and the T/C (dose: 50.0 mg/kg/injection, schedule: Q04DX003 (ip), vehicle: saline sonified) was 93 % of control.
`CC(C)(C)OC(=O)C(N)CC(N)=O` (configuration not stated) was tested, and the T/C [2] was 106 % of control, the T/C (dose: 100.0 mg/kg/injection, schedule: Q04DX002 (ip), vehicle: Klucel (hydroxypropylcellulose) (HPC)) was 103 % of control and the T/C [3] was 106 % of control. For the same compound, the T/C (dose: 200.0 mg/kg/injection, schedule: Q04DX002 (ip), vehicle: Klucel (hydroxypropylcellulose) (HPC)) was 88 % of control, the T/C [4] was 98 % of control and the T/C (dose: 400.0 mg/kg/injection, schedule: Q04DX002 (ip), vehicle: Klucel (hydroxypropylcellulose) (HPC)) was 98 % of control.
In the case of `CCCCCNC(=O)CCC`, the T/C [2] is reported as 108 % of control, the T/C [5] is reported as 96 % of control and the T/C [3] is reported as 108 % of control. For the same compound, the T/C [1] was 107 % of control, the T/C [4] was 106 % of control and the T/C [6] was 95 % of control.
`Cc1cc(N)c(C)c(CC#N)c1` was tested, and the T/C (dose: 50.0 mg/kg/injection, schedule: Q01DX009 (ip), vehicle: saline) was 97 % of control, the T/C (dose: 100.0 mg/kg/injection, schedule: Q01DX009 (ip), vehicle: saline) was 118 % of control and the T/C (dose: 200.0 mg/kg/injection, schedule: Q01DX009 (ip), vehicle: saline) was 90 % of control.
In the case of `O=S(=O)(Nc1ccccc1)c1ccc(C2CC3(Cl)C(Cl)=C(Cl)C2(Cl)C3(Cl)Cl)cc1` (configuration not stated), the T/C (dose: 29.0 mg/kg/injection, schedule: Q01DX015 (ip), vehicle: carboxymethylcellulose (CMC)) is reported as 97 % of control, the T/C (dose: 44.0 mg/kg/injection, schedule: Q01DX015 (ip), vehicle: carboxymethylcellulose (CMC)) is reported as 104 % of control and the T/C (dose: 66.0 mg/kg/injection, schedule: Q01DX015 (ip), vehicle: carboxymethylcellulose (CMC)) is reported as 95 % of control. The T/C (dose: 88.8 mg/kg/injection, schedule: Q01DX001 (ip), vehicle: carboxymethylcellulose (CMC)) was 96 % of control and 100 % of control, the T/C (dose: 100.0 mg/kg/injection, schedule: Q01DX001 (ip), vehicle: carboxymethylcellulose (CMC)) was 110 % of control and the T/C (dose: 100.0 mg/kg/injection, schedule: Q01DX009 (ip), vehicle: saline sonified) was 86 % of control. The T/C (dose: 100.0 mg/kg/injection, schedule: Q01DX015 (ip), vehicle: carboxymethylcellulose (CMC)) was 92 % of control, the T/C [5] was 100 % of control and the T/C (dose: 133.0 mg/kg/injection, schedule: Q01DX001 (ip), vehicle: carboxymethylcellulose (CMC)) was 107 % of control. The T/C (dose: 200.0 mg/kg/injection, schedule: Q01DX001 (ip), vehicle: carboxymethylcellulose (CMC)) was 96 % of control and 100 % of control, the T/C (dose: 200.0 mg/kg/injection, schedule: Q01DX015 (ip), vehicle: carboxymethylcellulose (CMC)) was 93 % of control and the T/C [1] was 97 % of control. For the same compound, the T/C (dose: 300.0 mg/kg/injection, schedule: Q01DX001 (ip), vehicle: carboxymethylcellulose (CMC)) was 100 % of control and 109 % of control, the T/C (dose: 400.0 mg/kg/injection, schedule: Q01DX001 (ip), vehicle: carboxymethylcellulose (CMC)) was 105 % of control and the T/C (dose: 400.0 mg/kg/injection, schedule: Q01DX009 (ip), vehicle: saline sonified) was 98 % of control. For the same compound, the T/C (dose: 400.0 mg/kg/injection, schedule: Q01DX015 (ip), vehicle: carboxymethylcellulose (CMC)) was 89 % of control and the T/C [6] was 92 % of control.
`CC(=O)OC1C(=O)C(C)(C)CSCC1(C)C` (configuration not stated) was tested, and the T/C [2] was 103 % of control, the T/C [3] was 103 % of control and the T/C [4] was 105 % of control.
With `O=[N+]([O-])CC(OCCCc1ccccc1)C(Cl)(Cl)Cl` (configuration not stated) the T/C (dose: 100.0 mg/kg/injection, schedule: Q01DX009 (ip), vehicle: saline with Tween-80) was 107 % of control, the T/C (dose: 100.0 mg/kg/injection, schedule: Q04DX003 (ip), vehicle: saline with Tween-80) was 93 % of control and the T/C (dose: 200.0 mg/kg/injection, schedule: Q01DX009 (ip), vehicle: saline with Tween-80) was 109 % of control. For the same compound, the T/C (dose: 200.0 mg/kg/injection, schedule: Q04DX003 (ip), vehicle: saline with Tween-80) was 104 % of control and the T/C (dose: 400.0 mg/kg/injection, schedule: Q04DX003 (ip), vehicle: saline with Tween-80) was 91 % of control.
`OC(c1ccccc1)(c1ccccc1)C1CC1c1ccncc1` (configuration not stated) was tested, and the T/C (dose: 25.0 mg/kg/injection, schedule: Q04DX003 (ip), vehicle: saline) was 107 % of control, the T/C (dose: 50.0 mg/kg/injection, schedule: Q04DX003 (ip), vehicle: saline) was 104 % of control and the T/C (dose: 100.0 mg/kg/injection, schedule: Q04DX003 (ip), vehicle: saline) was 98 % of control. For the same compound, the T/C (dose: 200.0 mg/kg/injection, schedule: Q04DX003 (ip), vehicle: saline) was 98 % of control and the T/C (dose: 400.0 mg/kg/injection, schedule: Q04DX003 (ip), vehicle: saline) was 91 % of control.
`Nc1nc(N)c(CCCOc2ccccc2Cl)c(N)n1` was tested, and the T/C (dose: 100.0 mg/kg/injection, schedule: Q01DX001 (ip), vehicle: Klucel (hydroxypropylcellulose) (HPC)) was 102 % of control and the T/C (dose: 200.0 mg/kg/injection, schedule: Q01DX001 (ip), vehicle: Klucel (hydroxypropylcellulose) (HPC)) was 102 % of control.

From PubChem BioAssay AID248 (DTP/NCI, 2004)
